Measured values: patent US11572358B2, “Solid forms of an sGC stimulator” (Cyclerion Therapeutics, Inc., priority 2016, dated 2023)

Assay: Storage stability at 40° C. and 75% relative humidity, XRPD trace before and after
Assay type: physicochemical
Conditions: stored for 14 months at 40° C. and 75% relative humidity
Description: When comparing XRPD spectra, a spectrum will be “substantially similar” to one shown in this disclosure for a particular solid form of Compound I, wherein the characteristic peaks in said spectrum are measured at the same values of °2θ as those shown in the figure of this disclosure, or within a range of + or −0.5 units of °2θ from those peaks shown in said figure.
X-Ray Powder Diffraction traces were obtained using a D8 Advance, Bruker apparatus; using one of two Methods:
Scan 5-45° 2-theta, 0.02° step size, 1 sec per step; or
Scan 3-40° 2-theta, 0.037° step size, 1.5 sec per step

NC(=O)[C@](O)(CNc1nc(-c2cc(-c3ccon3)n(Cc3ccccc3F)n2)ncc1F)C(F)(F)F [Form B, (R)-3,3,3-trifluoro-2-(((5-fluoro-2-(1-(2-fluorobenzyl)-5-(isoxazol-3-yl)-1H-pyrazol-3-yl)pyrimidin-4-yl)amino)methyl)-2-hydroxypropanamide]
XRPD trace after storage: essentially unchanged
